Our source for the pKa and pI values is patent US9689841B2, “Fluorescent pI markers for isoelectric focusing separations and fluorescent labeling” (The Texas A&M University System, priority 2011, dated 2017).

SMILES strings stand for the structures. Like-named read-outs stand apart in the source and are kept apart here.

The conditions of series [1]: cited from earlier work.
For series [2] the following is noted: from the two pKa values.
Excerpt: (§1) An ampholytic compound dissolved in an aqueous buffer can be present in the solution either as a cationic, isoelectric or anionic species, depending on the pH of the solution. In the presence of a nonalternating electric field, the cationic or anionic species migrate electrophoretically toward the cathode or the anode, respectively. At a certain solution pH where the ampholyte becomes isoelectric, the net electrophoretic migration of its band becomes zero. The numeric value of this solution pH is equal to the pI value (isoelectric point) of the ampholyte. The pI value of an ampholyte is a material characteristic that is determined by the structure of the ampholyte (the types and pKa values of its weak and strong electrolyte functional groups). When the ampholyte contains a single acidic group (characterized by pKa^acid) and a single basic group (characterized by pKa^conjugate acid for this conjugate acid form), the pI value of the ampholyte can be calculated as pI=(pKa^acid+pKa^conjugate acid)/2. When an ampholyte contains two acidic groups (characterized by pKa^acid1 and pKa^acid2) and one basic group (characterized by pKa^conjugate acid for its conjugate acid form) with pKa^acid1<pKa^acid2<<pKa^conjugate acid, the pI of the ampholyte lies between pKa^acid1 and pKa^acid2 and is calculated as pI=(pKa^acid1 pKa^acid2)/2. In such cases, the acidic groups between which the pI lies are called the buffering groups, while the basic group is called the titrating group or charge balancing group. Similarly, when an ampholyte contains two basic groups (characterized by pKa^conjugate acid1 and pKa^conjugate acid2 for their conjugate acid forms) and one acidic group (characterized by pKa^acid) with pKa^acid<<pKa^conjugate acid1<pKa^conjugate acid2, the pI of the ampholyte lies between pKa^conjugate acid1 and pKa^conjugate acid2 and is calculated as pI=(pKa^conjugate acid1, pKa^conjugate acid2)/2. In such cases, the two basic groups between which the pI lies are called the buffering groups, while the acidic group is called the titrating group or charge balancing group. When the ampholyte contains multiple buffering groups and multiple titrating or charge balancing groups with relatively close pKa values, the charge contribution of each species needs to be evaluated in order to calculate the pI value.
[3] abbreviates: first (lower) of the two pKa values.
[4] abbreviates: second (higher) of the two pKa values.

Excerpt for physchem: as §1

Usually pKa stands for the negative logarithm of the acid dissociation constant. On to `O=C(O)c1ccccc1C(=O)O` [1,2-benzenedicarboxylic acid], for which the pKa in series [1] (setting [3]) is on record as 2.76; in series [1] (setting [4]) it was 4.92.

Regarding `O=C(O)c1ccc(C(=O)O)cc1` [1,4-benzenedicarboxylic acid], the pKa in series [1] (setting [3]) is on record as 3.60; in series [1] (setting [4]), 4.50.

Consider `O=C(O)c1ccccn1` [pyridine-2-carboxylic acid], for which the pKa in “physchem” amounted to 2.1. Further, in series [2], the pI is reported as 3.105.

`O=C(O)c1cccnc1` [pyridine-3-carboxylic acid]: the pKa in the series “physchem” was determined as 1.3. This compound also yielded a pI in series [2] of 3.365.

Take `O=C(O)c1ccncc1` [pyridine-4-carboxylic acid]: the figures for the pKa (in “physchem”; in series [1] (setting [3]); in series [1] (setting [4])) were 1.54, 1.8 and 4.88, respectively. The compound also displayed a pI in series [2] of 3.34.
